What all share (assay type): biochemical
Assay [1] deals with T1, RET wt (Homo sapiens, UniProt P07949).
T1 construct: purchased Carna 08-159
Nature of the assay: In vitro kinase activity assay (mobility shift assay), RET wild type. As to conditions: ATP 16 μM, reaction time 60 min. The method, then: (§1) The IC50 (half inhibitory concentration) values of the compounds were used as an indicator to evaluate the inhibitory effect of the compound on RET wild-type, RET mutant, TRKa, SRC, BTK and/or mutated BTK kinase.
(§2) Using the method of Mobility shift assay, the compounds were tested for inhibitory activity against the following kinases: RET wild type, RET mutant, TRKa, SRC, BTK and/or mutated BTK. The initial concentration of the test compound was 1000 nM, 3-fold dilution, 10 concentrations, detected in a well for each concentration.
(§3) 20 mM hydroxyethylpiperazineethanesulfonic acid (Hepes) (pH 7.5) buffer, 10 mM MgCl2, 1 mM ethylene glycol bis(aminoethyl ether)tetraacetic acid (EGTA), 0.02% polyoxyethylene lauryl ether (Brij35), 0.02 mg/ml […] (BSA), 0.1 mM Na3VO4, 2 mM dithiothreitol (DTT), 1% DMSO.
(§4) The test compounds were dissolved in 100% dimethyl sulfoxide (DMSO) system, and prepared as 10 mM for use, and stored in a nitrogen cabinet away from light.
(§5) • (1) Preparing 1× kinase reaction buffer. • (2) Preparation of compound concentration gradient: the initial concentration of the compounds was 1000 nM, which was diluted as 100-fold final concentration of solution in 100% dimethyl sulfoxide (DMSO) in a 384-well plate. The compound was accurately 3-fold diluted with the kinase buffer solution, 10 concentrations in total, and the final concentration was 0.0508 nM. The 100-fold final concentration of solution in 100% dimethyl sulfoxide (DMSO) was obtained by dilution in 384 source plate. The liquid separator Echo 550 was used to transfer 250 nl of 100-fold final concentration of compound to the target 384 well plate. 250 nl of DMSO was added to the positive and negative control wells. • (3) 2.5-fold final concentration of kinase solution was prepared by the 1× kinase buffer. • (4) 10 4, of 2.5-fold final concentration of kinase solution was added to the compound well and the positive control well, respectively; 10 4, of 1× kinase buffer was added to the negative control well. • (5) After centrifuging at 1000 rpm for 30 second, the reaction plate was shaken and mixed, followed by incubation at room temperature for 10 min. • (6) a mixed solution of 25/15-fold final concentration of adenosine triphosphate (ATP) and kinase substrate was prepared by 1× kinase buffer. • (7) The mixed solution (15 μL) of 25/15-fold final concentration of adenosine triphosphate (ATP) and substrate was added to initiate the reaction. • (8) 384-well plate was centrifuged at 1000 rpm for 30 second, shaken and mixed well, and then incubated at room temperature for 30-240 min. • (9) After stopping the kinase reaction, the plate was centrifugated at 1000 rpm for 30 second, shaken and mixed well. • (10)The conversion rate was read with Caliper EZ Reader.
(§6) wherein Conversion%_sample is the conversion rate reading of the sample; Conversion%_min: the mean value of negative control wells, representing the conversion rate reading of wells without enzymes; Conversion%_max: the mean value of positive control wells, representing the conversion rate reading of wells without compound inhibition.
(§7) The log value of concentration was taken as the X axis, and the percentage inhibition rate was taken as the Y axis. Graphpad 6.0 analysis software was used to fit the dose-response curve, so as to obtain the IC50 value of each compound on the enzyme activity

In assay [2] the target is T2, TRKa (Homo sapiens, UniProt P04629).
T2 construct: purchased Carna 08-186
The assay is described as follows: In vitro kinase activity assay (mobility shift assay), TRKa. The following applies: ATP 47.8 μM, reaction time 30 min. On the procedure:
as §1, §2, §3, §4, §5, §6, §7

Assay [3] has as its target T3, BTK C481S (Homo sapiens, UniProt Q06187, C481S).
T3 construct: purchased Carna 08-547
The assay is described as follows: In vitro kinase activity assay (mobility shift assay), BTK C481S. As to conditions: ATP 90 μM, reaction time 30 min. On the procedure: as §1, §2, §3, §4, §5, §6, §7

Assay [4] deals with T4, BTK (Homo sapiens, UniProt Q06187).
T4 construct: purchased Carna 08-180
Nature of the assay: In vitro kinase activity assay (mobility shift assay), BTK. The following applies: ATP 71 μM, reaction time 30 min. The method, then:
as §1, §2, §3, §4, §5, §6, §7

The term IC50 denotes the concentration that inhibits the measured activity by half.

T1 sequence (P07949 29-1114): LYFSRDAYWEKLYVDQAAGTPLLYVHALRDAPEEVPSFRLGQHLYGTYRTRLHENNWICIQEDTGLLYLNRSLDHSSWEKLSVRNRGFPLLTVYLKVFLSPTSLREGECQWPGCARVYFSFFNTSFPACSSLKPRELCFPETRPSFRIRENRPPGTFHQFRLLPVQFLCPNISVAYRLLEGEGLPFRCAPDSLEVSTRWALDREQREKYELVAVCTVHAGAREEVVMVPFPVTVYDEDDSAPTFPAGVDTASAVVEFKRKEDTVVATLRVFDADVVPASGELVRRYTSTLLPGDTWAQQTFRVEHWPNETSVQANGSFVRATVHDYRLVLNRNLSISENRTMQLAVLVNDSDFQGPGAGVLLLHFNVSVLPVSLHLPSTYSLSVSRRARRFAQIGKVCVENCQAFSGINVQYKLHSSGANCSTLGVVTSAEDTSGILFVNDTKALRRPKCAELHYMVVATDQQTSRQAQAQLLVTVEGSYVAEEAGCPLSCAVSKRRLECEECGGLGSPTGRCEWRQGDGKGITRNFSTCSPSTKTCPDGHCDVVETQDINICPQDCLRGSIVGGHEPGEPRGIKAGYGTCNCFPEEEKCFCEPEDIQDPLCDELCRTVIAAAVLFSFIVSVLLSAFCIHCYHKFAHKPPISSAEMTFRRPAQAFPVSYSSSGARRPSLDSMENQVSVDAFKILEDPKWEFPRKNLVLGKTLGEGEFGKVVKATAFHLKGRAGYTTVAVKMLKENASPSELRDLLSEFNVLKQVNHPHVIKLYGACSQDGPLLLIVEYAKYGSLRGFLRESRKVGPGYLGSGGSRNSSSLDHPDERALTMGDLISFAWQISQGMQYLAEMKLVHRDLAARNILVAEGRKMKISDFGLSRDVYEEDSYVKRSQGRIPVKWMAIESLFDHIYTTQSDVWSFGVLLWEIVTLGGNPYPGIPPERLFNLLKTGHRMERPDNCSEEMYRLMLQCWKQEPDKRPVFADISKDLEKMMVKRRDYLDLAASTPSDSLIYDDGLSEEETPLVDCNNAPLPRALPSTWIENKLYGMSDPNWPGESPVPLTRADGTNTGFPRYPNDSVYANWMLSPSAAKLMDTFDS
T2 sequence (P04629 33-796): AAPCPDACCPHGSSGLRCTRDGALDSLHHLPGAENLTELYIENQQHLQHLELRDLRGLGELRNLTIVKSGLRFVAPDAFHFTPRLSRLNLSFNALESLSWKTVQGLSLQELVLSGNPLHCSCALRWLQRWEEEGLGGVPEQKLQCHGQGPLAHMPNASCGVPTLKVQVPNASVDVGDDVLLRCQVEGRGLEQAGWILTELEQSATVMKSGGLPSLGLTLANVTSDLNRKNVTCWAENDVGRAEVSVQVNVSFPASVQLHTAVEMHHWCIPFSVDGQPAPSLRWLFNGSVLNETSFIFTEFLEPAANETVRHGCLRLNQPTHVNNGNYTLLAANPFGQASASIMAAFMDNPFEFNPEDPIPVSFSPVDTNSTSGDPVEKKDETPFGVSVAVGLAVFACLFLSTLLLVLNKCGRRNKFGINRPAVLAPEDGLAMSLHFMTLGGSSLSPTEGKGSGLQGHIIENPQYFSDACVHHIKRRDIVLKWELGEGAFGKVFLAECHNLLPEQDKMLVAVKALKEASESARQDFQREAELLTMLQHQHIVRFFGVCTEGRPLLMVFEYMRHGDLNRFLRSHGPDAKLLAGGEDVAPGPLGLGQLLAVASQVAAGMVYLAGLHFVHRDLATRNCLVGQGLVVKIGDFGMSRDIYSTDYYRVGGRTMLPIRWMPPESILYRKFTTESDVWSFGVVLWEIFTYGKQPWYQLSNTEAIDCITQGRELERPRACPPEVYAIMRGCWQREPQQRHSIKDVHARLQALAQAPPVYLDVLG
T4 sequence (Q06187 whole entry): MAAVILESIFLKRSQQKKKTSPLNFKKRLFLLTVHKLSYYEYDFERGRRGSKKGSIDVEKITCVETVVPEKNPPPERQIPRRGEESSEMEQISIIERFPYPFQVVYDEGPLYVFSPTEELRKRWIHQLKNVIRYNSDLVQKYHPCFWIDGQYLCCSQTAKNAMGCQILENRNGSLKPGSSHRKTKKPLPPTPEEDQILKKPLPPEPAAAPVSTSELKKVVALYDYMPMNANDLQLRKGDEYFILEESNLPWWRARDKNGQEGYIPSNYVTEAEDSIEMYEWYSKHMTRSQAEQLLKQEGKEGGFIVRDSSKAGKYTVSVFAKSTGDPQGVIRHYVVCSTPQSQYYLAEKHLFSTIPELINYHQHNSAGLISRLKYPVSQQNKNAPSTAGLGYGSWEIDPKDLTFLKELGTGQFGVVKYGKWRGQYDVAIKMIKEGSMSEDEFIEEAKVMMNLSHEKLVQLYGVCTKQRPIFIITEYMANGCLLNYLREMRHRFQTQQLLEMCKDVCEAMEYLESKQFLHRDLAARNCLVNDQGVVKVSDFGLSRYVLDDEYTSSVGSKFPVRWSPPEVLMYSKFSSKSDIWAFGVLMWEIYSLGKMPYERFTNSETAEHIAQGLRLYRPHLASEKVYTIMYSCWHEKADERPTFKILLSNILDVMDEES
T3 sequence (Q06187 whole entry C481S): as the sequence (Q06187 whole entry) above, with C481S counted along it

On to `C[C@H]1CNC(=O)c2cnn3cc(O)c(nc23)NCc2cc(F)cnc2O1` [Compound 2, (S, 1^3E, 1^4E)-4^5-fluoro-6-methyl-1^6-hydroxy-5-oxa-2,8-diaza-1(5,3)-pyrazolo[1,5-a]pyrimidina-4(3,2)-pyridinacyclononaphan-9-one], for which the figures for the IC50 in assay [1] and in assay [2] were 5280 nM and 46 nM, respectively.

Regarding `COc1cc(-c2cn3ncc4c3nc2NCc2cc(F)cnc2O[C@@H](C)CNC4=O)ccn1` [Compound 5, (S, 1^3E, 1^4E)-4^5-fluoro-1^6-(2-methoxypyridin-4-yl)-6-methyl-5-oxa-2,8-diaza-1(5,3)-pyrazolo[1,5-a]pyrimidin-4(3, 2)-pyridinacyclononaphan-9-one], the IC50 was 237 nM in assay [1] and over 10000 nM in assay [2].

With `C[C@H]1CNC(=O)c2cnn3cc(-c4ccccc4F)c(nc23)NCc2cc(F)cnc2O1` [Compound 6, (S, 1^3E, 1^4E)-1^6-(2-fluorophenyl)-4^5-fluoro-6-methyl-5-oxa-2,8-diaza-1(5,3)-pyrazolo[1,5-a]pyrimidina-4(3,2)-pyridinacyclononaphan-9-one], the IC50 was found to be 5.1 nM in assay [1] and 1340 nM in assay [2].

`C[C@H]1CNC(=O)c2cnn3cc(-c4cccc(F)c4)c(nc23)NCc2cc(F)cnc2O1` [Compound 7, (S, 1^3E, 1^4E)-1^6-(3-fluorophenyl)-4^5-fluoro-6-methyl-5-oxa-2,8-diaza-1(5,3)-pyrazolo[1,5-a]pyrimidina-4(3,2)-pyridinacyclononaphan-9-one]: the IC50 in assay [1] was 10 nM; in assay [2], 1850 nM.

For `C[C@H]1CNC(=O)c2cnn3cc(-c4ccc(F)cc4)c(nc23)NCc2cc(F)cnc2O1` [Compound 8, (S, 1^3E, 1^4E)-1^6-(4-fluorophenyl)-4^5-fluoro-6-methyl-5-oxa-2,8-diaza-1(5,3)-pyrazolo[1,5-a]pyrimidina-4(3,2)-pyridinacyclononaphan-9-one], the results for the IC50 in assay [1] and in assay [2] were 13 nM and 1240 nM, respectively.

`Cc1ccc(-c2cn3ncc4c3nc2NCc2cc(F)cnc2O[C@@H](C)CNC4=O)cc1` [Compound 11, (S, 1^3E, 1^4E)-1^6-(4-methylphenyl)-4^5-fluoro-6-methyl-5-oxa-2,8-diaza-1(5,3)-pyrazolo[1,5-a]pyrimidina-4(3,2)-pyridinacyclononaphan-9-one]: the IC50 in assay [1] amounted to 15 nM; in assay [2] it was 925 nM.

Turning to `Cc1cccc(-c2cn3ncc4c3nc2NCc2cc(F)cnc2O[C@@H](C)CNC4=O)c1` [Compound 12, (S, 1^3E, 1^4E)-1^6-(3-methylphenyl)-4^5-fluoro-6-methyl-5-oxa-2,8-diaza-1(5,3)-pyrazolo[1,5-a]pyrimidina-4(3,2)-pyridinacyclononaphan-9-one], the IC50 in assay [1] was 36 nM; in assay [2], over 10000 nM.

As for `Cc1ccccc1-c1cn2ncc3c2nc1NCc1cc(F)cnc1O[C@@H](C)CNC3=O` [Compound 13, (S, 1^3E, 1^4E)-1^6-(2-methylphenyl)-4^5-fluoro-6-methyl-5-oxa-2,8-diaza-1(5,3)-pyrazolo[1,5-a]pyrimidina-4(3,2)-pyridinacyclononaphan-9-one], the results for the IC50 in assay [1] and in assay [2] were 5.3 nM and over 10000 nM, respectively.

Turning to `C[C@H]1CNC(=O)c2cnn3cc(-c4ccc(C(F)(F)F)cc4)c(nc23)NCc2cc(F)cnc2O1` [Compound 14, (S, 1^3E, 1^4E)-1^6-(4-trifluoromethylphenyl)-4^5-fluoro-6-methyl-5-oxa-2,8-diaza-1(5,3)-pyrazolo[1,5-a]pyrimidina-4(3,2)-pyridinacyclononaphan-9-one], the IC50 in assay [1] is 127 nM; in assay [2] it was over 10000 nM.

For the molecule `C[C@H]1CNC(=O)c2cnn3cc(-c4ccccc4C(F)(F)F)c(nc23)NCc2cc(F)cnc2O1` [Compound 16, (S, 1^3E, 1^4E)-1^6-(2-trifluoromethylphenyl)-4^5-fluoro-6-methyl-5-oxa-2,8-diaza-1(5,3)-pyrazolo[1,5-a]pyrimidina-4(3,2)-pyridinacyclononaphan-9-one], the IC50 in assay [1] stood at 543 nM; in assay [2], 1370 nM.

Take `C[C@H]1CNC(=O)c2cnn3cc(-c4ccc(=O)n(C)c4)c(nc23)NCc2cc(F)cnc2O1` [Compound 20, (S, 1^3E, 1^4E)-4^5-fluoro-6-methyl-1^6-(1-methyl-6-oxo-1,6-dihydropyridin-3-yl)-5-oxa-2,8-diaza-1(5,3)-pyrazolo[1,5-a]pyrimidin-4(3,2)-pyridinacyclononaphan-9-one]: the IC50 in assay [1] and in assay [2] was over 10000 nM each time.

Regarding `C[C@H]1CNC(=O)c2cnn3cc(-c4ccc(Cl)cc4Cl)c(nc23)NCc2cc(F)cnc2O1` [Compound 21, (S, 1^3E, 1^4E)-1^6-(2,4-dichlorophenyl)-4^5-fluoro-6-methyl-5-oxa-2,8-diaza-1(5,3)-pyrazolo[1,5-a]pyrimidin-4(3,2)-pyridinacyclononaphan-9-one], the IC50 is 5.9 nM in assay [1] and over 10000 nM in assay [2].

Regarding `C[C@H]1CNC(=O)c2cnn3cc(-c4c(F)cccc4F)c(nc23)NCc2cc(F)cnc2O1` [Compound 22, (S, 1^3E, 1^4E)-1^6-(2,6-difluorophenyl)-4^5-fluoro-6-methyl-5-oxa-2,8-diaza-1(5,3)-pyrazolo[1,5-a]pyrimidin-4(3,2)-pyridinacyclononaphan-9-one], the IC50 was 21 nM in assay [1] and 304 nM in assay [2].

`C[C@H]1CNC(=O)c2cnn3cc(C4CC4)c(nc23)NCc2cc(F)cnc2O1` [Compound 23, (S, 1^3E, 1^4E)-1^6-cyclopropyl-4^5-fluoro-6-methyl-5-oxa-2,8-diaza-1(5,3)-pyrazolo[1,5-a]pyrimidin-4(3,2)-pyridinacyclononaphan-9-one]: the IC50 in assay [1] was 448 nM; in assay [2] it was over 10000 nM.

Take `C[C@H]1CNC(=O)c2cnn3cc(Nc4ccccc4)c(nc23)NCc2cc(F)cnc2O1` [Compound 25, (S, 1^3E, 1^4E)-4^5-fluoro-6-methyl-1^6-phenylamino-5-oxa-2,8-diaza-1(5,3)-pyrazolo[1,5-a]pyrimidina-4(3,2)-pyridinacyclononaphan-9-one]: the IC50 in assay [1] was 366 nM; in assay [2], over 10000 nM.

On to `C[C@H]1CNC(=O)c2cnn3cc(-c4ccccc4)c(nc23)N[C@H](C)c2cc(F)cnc2O1` [Compound 26, (1^3E, 1^4E, 3R, 6S)-4^5-fluoro-3,6-dimethyl-1^6-phenyl-5-oxa-2,8-diaza-1(5,3)-pyrazolo[1,5-a]pyrimidin-4(3,2)-pyridinacyclononaphan-9-one], for which the values for the IC50 in assay [1] and in assay [2] were 9 nM and over 10000 nM, respectively.

Turning to `O=C1N[C@H]2C[C@H](C2)Oc2ncc(F)cc2CNc2nc3c1cnn3cc2-c1ccccc1` [Compound 29], the IC50 is 20 nM in assay [1] and over 10000 nM in assay [2].

Regarding `C[C@H]1CNC(=O)c2cnn3c(N)c(-c4ccc(Cl)cc4)c(nc23)NCc2cc(F)cnc2O1` [Compound 50, (S, 1^3E, 1^4E)-1^7-amino-1^6-(4-chlorophenyl)-4^5-fluoro-6-methyl-5-oxa-2,8-diaza-1(5,3)-pyrazolino[1,5-a]pyrimidin-4(3,2)-pyridinacyclononaphan-9-one], the IC50 in assay [3] came out at 1.48 nM; in assay [1], 0.83 nM; in assay [4] it was 1.8 nM.

The values above are taken from patent US20230219978A1, “COMPOUND HAVING MACROCYCLIC STRUCTURE AND USE THEREOF” (SCINNOHUB PHARMACEUTICAL CO., LTD, priority 2020, published 2023).
